Test results reported in PMC10482691, “LTP induction by structural rather than enzymatic functions of CaMKII” (Nature, 2023).
Several values for one entry are separate records, joined by “and”; a condition that tells them apart may be missing. Identical values can stand only once.

Columns and labels:
GSK3β(h) = GSK3β(h) (Homo sapiens, UniProt P49841); test: Kinase selectivity panel (residual activity at 1 μM); assay type: biochemical; conditions: inhibitor at 1 μM; read-out: residual kinase activity in % of maximal activity
PKG1α(h) = PKG1α(h) (Homo sapiens, UniProt Q13976); test: as above; assay type: biochemical; conditions: inhibitor at 1 μM; read-out: residual kinase activity in % of maximal activity
CDK2/cyclinE(h) = CDK2/cyclinE(h) (Homo sapiens, UniProt P24941); test: as above; assay type: biochemical; conditions: inhibitor at 1 μM
mTOR(h) = mTOR(h) (Homo sapiens, UniProt P42345); test: as above; assay type: biochemical; conditions: inhibitor at 1 μM; read-out: residual kinase activity in % of maximal activity
PKCα(h) = PKCα(h) (Homo sapiens, UniProt P17252); test: as above; assay type: biochemical; conditions: inhibitor at 1 μM; read-out: residual kinase activity in % of maximal activity
KDR(h) = KDR(h) (Homo sapiens, UniProt P35968); test: as above; assay type: biochemical; conditions: inhibitor at 1 μM; read-out: residual kinase activity in % of maximal activity
MAPK2(h) = MAPK2(h) (Homo sapiens, UniProt P28482); test: as above; assay type: biochemical; conditions: inhibitor at 1 μM; read-out: residual kinase activity in % of maximal activity
[1] = target: purified CaMKIIα binding to GST–GluN2B-c WT (Homo sapiens, UniProt Q9UQM7); test: CaMKII binding to immobilized GST–GluN2B-c in vitro; conditions: for bound CaMKIIα (immunoblot, relative): Ca2+/CaM
Protocol: CaMKII–GluN2B binding assays were done as described[9],[13],[25]. Briefly, GST–GluN2B-c tail (GST–2BC) was immobilized on anti-GST antibody-coated microtiter plates (Thermo Scientific), blocked for 30 min with 5% BSA and then overlaid with […] CaMKII (subunit concentration) in PIPES-buffered saline (pH 7.2) containing 2 mM Ca^2+, 1 μM CaM, 1 mM Mg^2+, 0.1% BSA and 0.1% Tween-20 for 20 min at room temperature. […] After extensive washes in buffer containing 1 mM EGTA, GST–2BC and bound CaMKII were eluted for 10 min in SDS loading buffer at 95 °C. Bound CaMKII was measured via immunoblot.

ROCK-II(h) = ROCK-II(h) (Homo sapiens, UniProt O75116); test: Kinase selectivity panel (residual activity at 1 μM); assay type: biochemical; conditions: inhibitor at 1 μM; read-out: residual kinase activity in % of maximal activity
Sequence of ROCK-II(h) (O75116 whole entry): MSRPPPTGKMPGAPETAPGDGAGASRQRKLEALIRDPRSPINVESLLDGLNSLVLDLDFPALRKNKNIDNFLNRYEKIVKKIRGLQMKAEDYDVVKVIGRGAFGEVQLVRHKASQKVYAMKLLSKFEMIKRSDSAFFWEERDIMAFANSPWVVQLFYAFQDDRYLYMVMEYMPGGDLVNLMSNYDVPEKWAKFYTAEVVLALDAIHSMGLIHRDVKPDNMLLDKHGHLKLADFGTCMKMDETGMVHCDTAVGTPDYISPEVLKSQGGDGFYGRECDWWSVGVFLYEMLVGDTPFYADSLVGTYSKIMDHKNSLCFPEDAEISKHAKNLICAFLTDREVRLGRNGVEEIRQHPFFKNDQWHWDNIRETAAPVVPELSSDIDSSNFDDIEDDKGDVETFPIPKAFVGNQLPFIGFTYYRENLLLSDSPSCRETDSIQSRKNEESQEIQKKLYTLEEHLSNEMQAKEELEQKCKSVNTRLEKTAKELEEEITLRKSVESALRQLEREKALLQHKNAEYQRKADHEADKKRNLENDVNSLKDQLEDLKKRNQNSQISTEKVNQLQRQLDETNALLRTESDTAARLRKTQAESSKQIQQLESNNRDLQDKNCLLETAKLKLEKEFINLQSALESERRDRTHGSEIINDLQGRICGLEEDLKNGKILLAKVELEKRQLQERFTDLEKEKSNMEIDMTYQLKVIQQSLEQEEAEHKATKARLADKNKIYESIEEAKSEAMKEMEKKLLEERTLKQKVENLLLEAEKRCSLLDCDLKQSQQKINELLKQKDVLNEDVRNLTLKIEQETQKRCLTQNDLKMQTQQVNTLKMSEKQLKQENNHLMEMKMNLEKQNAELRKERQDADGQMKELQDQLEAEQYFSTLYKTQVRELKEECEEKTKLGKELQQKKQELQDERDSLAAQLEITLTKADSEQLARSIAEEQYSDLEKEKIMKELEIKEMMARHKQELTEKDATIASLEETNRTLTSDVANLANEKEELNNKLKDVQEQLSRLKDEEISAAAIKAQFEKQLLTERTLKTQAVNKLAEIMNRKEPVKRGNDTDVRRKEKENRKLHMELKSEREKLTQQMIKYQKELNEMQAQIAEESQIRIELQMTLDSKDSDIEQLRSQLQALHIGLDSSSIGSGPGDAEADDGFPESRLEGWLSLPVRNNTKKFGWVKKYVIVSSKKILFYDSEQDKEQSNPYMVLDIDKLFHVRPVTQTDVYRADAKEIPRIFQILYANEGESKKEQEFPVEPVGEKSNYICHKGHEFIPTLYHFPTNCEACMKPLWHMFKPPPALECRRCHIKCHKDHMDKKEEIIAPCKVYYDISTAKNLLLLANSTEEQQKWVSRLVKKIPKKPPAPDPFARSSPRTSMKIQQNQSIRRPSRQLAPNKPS

cKit(h) = cKit(h) (Homo sapiens, UniProt P10721); test: as above; assay type: biochemical; conditions: inhibitor at 1 μM; read-out: residual kinase activity in % of maximal activity
FAK(h) = FAK(h) (Homo sapiens, UniProt Q05397); test: as above; assay type: biochemical; conditions: inhibitor at 1 μM; read-out: residual kinase activity in % of maximal activity
Sequence of FAK(h) (Q05397 whole entry): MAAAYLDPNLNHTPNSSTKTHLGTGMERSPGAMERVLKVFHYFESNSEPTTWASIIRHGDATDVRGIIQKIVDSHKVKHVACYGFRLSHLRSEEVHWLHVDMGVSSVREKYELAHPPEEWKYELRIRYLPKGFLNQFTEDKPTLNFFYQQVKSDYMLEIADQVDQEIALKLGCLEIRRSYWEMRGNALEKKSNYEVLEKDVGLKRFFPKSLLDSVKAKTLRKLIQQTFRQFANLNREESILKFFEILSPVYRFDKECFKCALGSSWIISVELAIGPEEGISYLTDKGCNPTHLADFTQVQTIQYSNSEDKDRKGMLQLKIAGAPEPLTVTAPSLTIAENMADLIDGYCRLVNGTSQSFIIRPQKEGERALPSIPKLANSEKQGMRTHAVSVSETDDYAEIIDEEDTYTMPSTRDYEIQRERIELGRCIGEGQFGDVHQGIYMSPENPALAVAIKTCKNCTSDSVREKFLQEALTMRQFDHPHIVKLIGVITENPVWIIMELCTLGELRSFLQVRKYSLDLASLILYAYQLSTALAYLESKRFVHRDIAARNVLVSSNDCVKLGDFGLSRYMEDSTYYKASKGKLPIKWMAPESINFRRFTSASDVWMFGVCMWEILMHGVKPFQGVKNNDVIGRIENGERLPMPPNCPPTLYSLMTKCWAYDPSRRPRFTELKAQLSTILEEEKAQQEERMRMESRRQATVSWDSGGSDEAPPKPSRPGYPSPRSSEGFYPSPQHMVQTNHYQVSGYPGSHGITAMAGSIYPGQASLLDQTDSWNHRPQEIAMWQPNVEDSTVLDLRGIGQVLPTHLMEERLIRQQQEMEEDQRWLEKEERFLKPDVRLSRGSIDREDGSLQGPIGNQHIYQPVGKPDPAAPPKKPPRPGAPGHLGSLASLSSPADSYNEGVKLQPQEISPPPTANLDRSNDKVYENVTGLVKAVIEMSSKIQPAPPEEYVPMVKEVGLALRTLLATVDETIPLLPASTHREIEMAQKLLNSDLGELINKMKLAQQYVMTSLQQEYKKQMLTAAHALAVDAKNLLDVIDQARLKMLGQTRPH

JAK2(h) = JAK2(h) (Homo sapiens, UniProt O60674); test: as above; assay type: biochemical; conditions: inhibitor at 1 μM
Sequence of JAK2(h) (O60674 whole entry): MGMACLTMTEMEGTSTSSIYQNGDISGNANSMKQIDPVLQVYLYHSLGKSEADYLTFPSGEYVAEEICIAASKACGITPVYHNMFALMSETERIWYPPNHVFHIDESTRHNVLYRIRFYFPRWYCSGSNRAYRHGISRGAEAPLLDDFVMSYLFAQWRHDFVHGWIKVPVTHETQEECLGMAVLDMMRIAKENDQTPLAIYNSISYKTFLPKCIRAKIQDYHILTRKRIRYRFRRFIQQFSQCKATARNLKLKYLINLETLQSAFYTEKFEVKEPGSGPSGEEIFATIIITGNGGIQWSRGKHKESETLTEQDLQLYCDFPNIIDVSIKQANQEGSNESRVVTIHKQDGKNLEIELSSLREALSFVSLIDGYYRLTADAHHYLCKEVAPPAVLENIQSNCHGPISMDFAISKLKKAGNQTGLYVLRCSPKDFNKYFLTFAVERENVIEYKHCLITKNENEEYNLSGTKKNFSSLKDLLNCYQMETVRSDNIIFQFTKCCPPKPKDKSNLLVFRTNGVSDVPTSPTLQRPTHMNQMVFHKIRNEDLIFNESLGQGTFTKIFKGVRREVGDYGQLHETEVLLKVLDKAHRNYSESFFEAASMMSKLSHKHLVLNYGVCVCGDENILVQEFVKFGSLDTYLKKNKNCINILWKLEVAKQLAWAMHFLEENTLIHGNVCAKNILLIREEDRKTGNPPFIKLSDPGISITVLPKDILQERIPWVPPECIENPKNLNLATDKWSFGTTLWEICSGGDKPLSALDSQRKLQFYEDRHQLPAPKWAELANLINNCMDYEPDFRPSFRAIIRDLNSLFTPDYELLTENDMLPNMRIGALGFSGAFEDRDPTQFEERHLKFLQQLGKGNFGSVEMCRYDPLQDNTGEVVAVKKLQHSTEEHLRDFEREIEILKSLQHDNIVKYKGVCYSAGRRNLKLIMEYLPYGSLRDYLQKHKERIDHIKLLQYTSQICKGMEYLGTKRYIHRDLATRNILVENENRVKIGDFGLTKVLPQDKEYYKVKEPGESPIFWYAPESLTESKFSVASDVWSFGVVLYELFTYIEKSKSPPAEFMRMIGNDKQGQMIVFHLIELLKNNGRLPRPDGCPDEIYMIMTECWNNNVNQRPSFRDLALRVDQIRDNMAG

SGK(h) = SGK(h) (Homo sapiens, UniProt O00141); test: as above; assay type: biochemical; conditions: inhibitor at 1 μM; read-out: residual kinase activity in % of maximal activity
CaMKI(h) = CaMKI(h) (Homo sapiens, UniProt Q14012); test: as above; assay type: biochemical; conditions: inhibitor at 1 μM; read-out: residual kinase activity in % of maximal activity
Sequence of CaMKI(h) (Q14012 whole entry): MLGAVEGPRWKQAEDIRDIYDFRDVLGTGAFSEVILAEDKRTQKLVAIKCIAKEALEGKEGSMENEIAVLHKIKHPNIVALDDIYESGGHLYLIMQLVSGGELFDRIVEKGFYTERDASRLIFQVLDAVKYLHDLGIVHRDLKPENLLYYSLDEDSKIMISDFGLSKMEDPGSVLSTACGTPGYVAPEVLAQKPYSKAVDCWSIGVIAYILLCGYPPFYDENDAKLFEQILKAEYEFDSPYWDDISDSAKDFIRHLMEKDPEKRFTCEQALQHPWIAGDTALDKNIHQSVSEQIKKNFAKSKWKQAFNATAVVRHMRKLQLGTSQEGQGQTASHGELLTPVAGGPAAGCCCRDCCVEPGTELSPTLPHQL

[2] = test system: GFP–CaMKII F89G in rat hippocampal neurons; test: cLTP-induced CaMKII synaptic enrichment in dissociated hippocampal cultures (GFP–CaMKII F89G); assay type: cell-based; conditions: for CaMKII synaptic enrichment: GFP-CaMKII F89G, individual neurons, sheet 4e
[3] = target: T1, CaMKII-F89G binding to GST-GluN2B-c (Homo sapiens, UniProt Q9UQM7, F89G); test: CaMKII-F89G binding to immobilized GST-GluN2B-c in vitro
T1 construct: made in house; host or cells: HEK293 overexpression (CaMKII mutant); BL21 bacteria (CaM, GST-GluN2Bc)
T1 sequence (Q9UQM7 whole entry F89G): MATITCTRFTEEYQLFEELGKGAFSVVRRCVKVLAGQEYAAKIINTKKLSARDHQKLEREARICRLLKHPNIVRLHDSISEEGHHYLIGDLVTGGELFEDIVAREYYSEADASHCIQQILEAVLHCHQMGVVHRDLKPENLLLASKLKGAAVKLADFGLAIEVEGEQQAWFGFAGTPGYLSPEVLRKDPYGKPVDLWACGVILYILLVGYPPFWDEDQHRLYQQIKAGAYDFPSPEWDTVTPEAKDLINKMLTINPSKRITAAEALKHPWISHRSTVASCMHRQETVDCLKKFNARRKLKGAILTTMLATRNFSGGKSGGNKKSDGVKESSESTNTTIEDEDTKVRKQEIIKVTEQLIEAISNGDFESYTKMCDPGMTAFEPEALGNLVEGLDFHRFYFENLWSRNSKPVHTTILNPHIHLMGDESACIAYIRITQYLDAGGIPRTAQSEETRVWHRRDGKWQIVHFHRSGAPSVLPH
T1 sequence (Q13224 836-1484, further chain): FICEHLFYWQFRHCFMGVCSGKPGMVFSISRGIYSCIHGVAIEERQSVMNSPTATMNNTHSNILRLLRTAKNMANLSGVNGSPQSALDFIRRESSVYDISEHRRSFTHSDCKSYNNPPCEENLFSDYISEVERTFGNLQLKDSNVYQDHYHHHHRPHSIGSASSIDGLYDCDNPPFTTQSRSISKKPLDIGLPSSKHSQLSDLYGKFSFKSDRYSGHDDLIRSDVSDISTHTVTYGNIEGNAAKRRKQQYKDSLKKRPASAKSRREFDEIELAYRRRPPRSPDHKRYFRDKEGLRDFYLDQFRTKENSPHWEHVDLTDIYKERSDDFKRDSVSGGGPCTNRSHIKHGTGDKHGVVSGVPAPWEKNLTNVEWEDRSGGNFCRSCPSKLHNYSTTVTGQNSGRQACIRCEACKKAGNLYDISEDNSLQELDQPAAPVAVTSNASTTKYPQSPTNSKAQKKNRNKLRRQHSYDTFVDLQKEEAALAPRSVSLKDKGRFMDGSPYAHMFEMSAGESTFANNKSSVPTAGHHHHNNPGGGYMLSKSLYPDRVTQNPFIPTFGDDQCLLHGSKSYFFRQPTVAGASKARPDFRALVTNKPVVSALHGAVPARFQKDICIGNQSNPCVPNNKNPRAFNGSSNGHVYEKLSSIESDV
Protocol: CaMKII–GluN2B binding assays were done as described[9],[13],[25]. Briefly, GST–GluN2B-c tail (GST–2BC) was immobilized on anti-GST antibody-coated microtiter plates (Thermo Scientific), blocked for 30 min with 5% BSA and then overlaid with […] CaMKII (subunit concentration) in PIPES-buffered saline (pH 7.2) containing 2 mM Ca^2+, 1 μM CaM, 1 mM Mg^2+, 0.1% BSA and 0.1% Tween-20 for 20 min at room temperature. The addition of 1 mM ADP, 1 mM ATP, 10 μM AS283 (or AS105) or 10 μM NM-PP1 was added accordingly (Figs. 1–6). After extensive washes in buffer containing 1 mM EGTA, GST–2BC and bound CaMKII were eluted for 10 min in SDS loading buffer at 95 °C. Bound CaMKII was measured via immunoblot.
Extended Data Fig. 4 CaMKII WT and K42M are unaffected by NM-PP1 in HEK cells. Data are presented as mean values +/− SEM. a, Representative immunoblot and quantification of in vitro kinase reactions at 30 °C in 1 mM ATP measuring CaMKIIα WT and F89G phosphorylation of T286 (n = 4 independent samples, **p < 0.01, ***p < 0.001; two-way ANOVA with Šídák’s multiple comparisons test). WT) –:ATP p = 0.0012; –:ATP+NM-PP1 p = 0.0002; ATP:ATP+NM-PP1 p = 0.7989. […] Scale bar indicates 10 μm. n = 22, 17 cells; see Fig. 4c for quantification. c, Binding of CaMKII-F89G to immobilized GST-GluN2B-c was induced by Ca^2+/CaM in the presence of either 1 mM ADP or 10 μM NM-PP1. […]

SMILES: NCCNc1cccc(-c2ccnc3[nH]c4ccccc4c23)c1 [AS283]
- remaining activity at 1 µM (GSK3β(h)): 87%
- remaining activity at 1 µM (PKG1α(h)): 48%
- residual kinase activity in % of maximal activity (CDK2/cyclinE(h)): 41%
- remaining activity at 1 µM (mTOR(h)): 115%
- remaining activity at 1 µM (PKCα(h)): 49%
- remaining activity at 1 µM (KDR(h)): 15%
- remaining activity at 1 µM (MAPK2(h)): 97%
- effect on CaMKII binding to GluN2B in vitro ([1]; 10 μM AS283 in the presence of ADP): did not inhibit
- Ca2+/CaM-induced CaMKII binding when ATP was substituted with AS283 ([1]; AS283 versus ATP): significantly enhanced
- bound CaMKIIα (immunoblot, relative) ([1]; 10 μM AS283, no nucleotide, GST–GluN2B-c WT): 7.5135 and 8.574 and 8.878 and 7.419
- bound CaMKIIα (immunoblot, relative) ([1]; 1 mM ADP with 10 μM AS283): 1.196 and 1.2737 and 1.086 and 1.094
- remaining activity at 1 µM (ROCK-II(h)): 77%
- remaining activity at 1 µM (cKit(h)): 50%
- remaining activity at 1 µM (FAK(h)): 68%
- residual kinase activity in % of maximal activity (JAK2(h)): 121%
- remaining activity at 1 µM (SGK(h)): 86%
- remaining activity at 1 µM (CaMKI(h)): 107%

SMILES: CC(C)(C)n1nc(Cc2cccc3ccccc23)c2c(N)ncnc21 [NM-PP1]
- effect on impaired LTP-induced synaptic CaMKII localization ([2]; F89G mutant, 10 μM NM-PP1): rescued
- CaMKII synaptic enrichment ([2]; NMPP1, before cLTP): 1.457 and 2.177 and 1.336 and 1.561 and 0.9177 and 1.552
- CaMKII synaptic enrichment ([2]; after cLTP in NMPP1): 2.238 and 2.292 and 2.101 and 2.038 and 1.685 and 2.186
- bound CaMKII-F89G (immunoblot, relative) ([3]; Ca2+/CaM, 10 μM NM-PP1): 3.501 and 3.151 and 3.552 and 3.537
- effect on binding of CaMKII F89G to GluN2B in vitro ([3]; NM-PP1): enabled binding
